Assay [1] concerns HBV. The experiment in a line: AAV mice study: serum HBV DNA copy number by fluorescence quantitative PCR. The assay is classed as in vivo, C57BL/6 mice. The note with it: for HBV DNA (result in words): over a 42-day treatment period, AAV mice; for HBV DNA replication level in mouse serum (treatment period): rAAV8-1.3HBV mice, i.g., ETV 0.0032 (1 W) & 0.001 (2-6 W) mg/kg qd, TLR7 agonist 20 mg/kg tiw. The protocol:
Male C57BL/6 mice (Shanghai Slac Laboratory Animal Co., Ltd.) aged 6-8 weeks were taken, and rAAV8-1.3HBV virus (FivePlus Institute of Molecular Medicine, Beijing) was injected into the C57BL/6 mice via tail veins at a dose of 1×10^11 vg. Blood was collected from the orbit at week 2 and week 4 after the virus was injected. Serum was separated, and HBV DNA copy number in serum were measured to determine whether the model was successfully constructed or not. Mice were randomized according to the HBV DNA copy number into vehicle control group, TLR7 agonist group (20 mg/kg, tiw), entecavir (ETV) group (0.0032 (week 1, 1 W) & 0.001 (week 2-6, 2-6 W) mg/kg, qd), and TLR7 agonist and ETV combination group, each group containing 6 mice. The mice in each group were administered intragastrically for 6 weeks, and the administration was stopped for 3 week. Blood was collected from the orbit at weeks 1, 2, 3, 4, 5 and 6 during the administration period and weeks 1, 2 and 3 during the withdrawal period, and serum was separated. The HBV DNA copy number was determined by fluorescence quantitative PCR.
• i. Vehicle control group; • ii. Monotherapy group: entecavir; • iii. Monotherapy group: TLR7 agonist; • iv. Combination group (combo): TLR7 agonist and entecavir;
The test results were evaluated by Jin equation. The Jin equation is a modified method based on the Burgi method, and is also referred to the probability addition method:
The combination efficacy is calculated according to the following equation: q=EA+B/(EA+EB−EA×EB)
wherein EA denotes the efficacy of drug A monotherapy; EB denotes the efficacy of drug B monotherapy; EA+B denotes the efficacy of the combination of drugs A and B.
The significance of q: 0.85 to 1.15 indicates simple addition; 1.15 to 20 indicates enhancement; greater than 20 indicates significant enhancement; 0.85 to 0.55 indicates antagonism; less than 0.55 indicates significant antagonism. The q value takes the absolute value.

Assay [2] concerns HBV. Kind of assay: Example 2: clinical study of TLR7 agonist combined with entecavir in chronic hepatitis B patients. The class given is in vivo, human. Conditions: TLR7 agonist 1.0-1.8 mg once weekly, entecavir 0.5 mg/day, 24 weeks. Here is the method:
[drawing 54] (2-butoxy-7-(4-(pyrrolidin-1-ylmethyl) benzyl)-5H-pyrrolo[3,2-d]pyrimidin-4-amine); see WO2016023511 for the preparation method. The compound was prepared into tablets with strength of 0.2 mg or 0.5 mg. • Entecavir: commercially available entecavir tablets with strength of 0.5 mg. Commercially available entecavir tablets include, but are not limited to, entecavir dispersible tablets (Runzhong). • Placebo: a placebo for TLR7 agonist. 2. Enrolled Subjects
The subject should meet all of the following criteria: • 1) Male patients or non-pregnant, non-lactating female patients aged 18-65 years (inclusive); • 2) Serum virology: persistent positive serum HBsAg for 6 months or more, or with evidence of chronic hepatitis B for 6 months; • 3) Previously treated patients: historical HBV DNA inhibition less than the lower limit of normal 24 weeks before enrollment, and HBV DNA inhibition defined as <69 IU/mL determined by a Roche reagent during screening; Fibroscan ≤9.0 Kpa (fasting), and ALT≤5×ULN; • 4) Previously untreated patients: HBV DNA >10^5 copies/mL (or >20000 IU/mL) for HBeAg-positive chronic hepatitis B patients or HBV DNA >10^4 copies/mL (or >2000 IU/mL) for HBeAg-negative patients as determined by Roche's Cobas Taqman real-time quantitative PCR test v2.0, with the lower limit of detection being 20 IU/mL; Fibroscan ≤12.4 Kpa (fasting), and 1×ULN≤ALT≤5×ULN. […] 3. […]

Setting [3] is: withdrawal period day 49, after 6 weeks of i.g. administration.
Where [4] appears, read: withdrawal period day 56, after 6 weeks of i.g. administration.
Setting [5] is: withdrawal period day 63, after 6 weeks of i.g. administration.

With `CCCCOc1nc(N)c2[nH]cc(Cc3ccc(CN4CCCC4)cc3)c2n1` [TLR7 agonist, 2-butoxy-7-(4-(pyrrolidin-1-ylmethyl)benzyl)-5H-pyrrolo[3,2-d]pyrimidin-4-amine], the “HBV DNA (result in words)” value in the assay with HBV [1] was “significantly reduced”. For the same molecule, the “HBV DNA replication level in mouse serum (treatment period)” value in the assay with HBV [1] (treatment period day 0) came to 7.53 ± 0.15 logic lU/mL; with HBV [1] (treatment period day 7), 6.64 ± 1.33 logic lU/mL; in the assay with HBV [1] (treatment period day 14) it was 4.55 ± 1.41 logic lU/mL; with HBV [1] (treatment period day 21), 4.13 ± 0.67 logic lU/mL; in the assay with HBV [1] (treatment period day 28), 3.64 ± 0.21 logic lU/mL; in the assay on HBV [1] (treatment period day 35), 3.61 ± 0.24 logic lU/mL. The “HBV DNA replication level in mouse serum (treatment period)” value with HBV [1] (treatment period day 42) is 3.41 ± 0.33 logic lU/mL. In addition, the figures for the “HBV DNA replication level in mouse serum (withdrawal period)” value with HBV [1] (setting [3]), with HBV [1] (setting [4]) and in the assay on HBV [1] (setting [5]) were 4.37 ± 0.48 log10 IU/mL, 4.86 ± 0.41 log10 IU/mL and 5.26 ± 0.39 log10 IU/mL, respectively. Also, the “HBV DNA replication (result in words)” value in the assay with HBV [2] is recorded as “achieved inhibition”.

With `C=C1[C@H](CO)[C@@H](O)C[C@@H]1n1cnc2c(=O)[nH]c(N)nc21` [entecavir, 2-amino-9-[(1S,3R,4S)-4-hydroxy-3-hydroxymethyl-2-methylenecyclopentyl]-1,9-dihydro-6H-purin-6-one], in the assay on HBV [1], the “HBV DNA (result in words)” value is recorded as “significantly reduced”. Besides, the “HBV DNA replication level in mouse serum (treatment period)” value in the assay on HBV [1] (treatment period day 0) worked out at 7.53 ± 0.15 logic lU/mL; in the assay with HBV [1] (treatment period day 7) it was 5.27 ± 0.18 logic lU/mL; in the assay on HBV [1] (treatment period day 14) it was 5.66 ± 0.14 logic lU/mL; in the assay with HBV [1] (treatment period day 21), 5.96 ± 0.28 logic lU/mL; in the assay on HBV [1] (treatment period day 28), 5.34 ± 0.43 logic lU/mL; with HBV [1] (treatment period day 35), 5.62 ± 0.36 logic lU/mL. Also, the “HBV DNA replication level in mouse serum (treatment period)” value with HBV [1] (treatment period day 42) came out at 6.44 ± 0.46 logic lU/mL. For the same molecule, the “HBV DNA replication level in mouse serum (withdrawal period)” value with HBV [1] (setting [3]) turned out to be 6.97 ± 0.72 log10 IU/mL; in the assay on HBV [1] (setting [4]), 7.32 ± 0.73 log10 IU/mL; with HBV [1] (setting [5]), 7.33 ± 0.80 log10 IU/mL. Further, the “HBV DNA replication (result in words)” value in the assay with HBV [2] is “inhibitory effects”.

(Values after US12336996B2, “Drug combination containing TLR7 agonist” (Chia Tai Tianqing Pharmaceutical Group Co., Ltd., priority 2019, dated 2025).)
